Calls of active or inactive are those of the source. The calls are words filed in the database; no cut-off is given here.
Tests used:
P2X purinoceptor 7 [1] = target: T1, P2X purinoceptor 7 (Homo sapiens, UniProt Q99572); assay: Antagonist activity at human P2X7 receptor ethidium bromide release assay; assay type: functional
T1 sequence (Q99572 whole entry): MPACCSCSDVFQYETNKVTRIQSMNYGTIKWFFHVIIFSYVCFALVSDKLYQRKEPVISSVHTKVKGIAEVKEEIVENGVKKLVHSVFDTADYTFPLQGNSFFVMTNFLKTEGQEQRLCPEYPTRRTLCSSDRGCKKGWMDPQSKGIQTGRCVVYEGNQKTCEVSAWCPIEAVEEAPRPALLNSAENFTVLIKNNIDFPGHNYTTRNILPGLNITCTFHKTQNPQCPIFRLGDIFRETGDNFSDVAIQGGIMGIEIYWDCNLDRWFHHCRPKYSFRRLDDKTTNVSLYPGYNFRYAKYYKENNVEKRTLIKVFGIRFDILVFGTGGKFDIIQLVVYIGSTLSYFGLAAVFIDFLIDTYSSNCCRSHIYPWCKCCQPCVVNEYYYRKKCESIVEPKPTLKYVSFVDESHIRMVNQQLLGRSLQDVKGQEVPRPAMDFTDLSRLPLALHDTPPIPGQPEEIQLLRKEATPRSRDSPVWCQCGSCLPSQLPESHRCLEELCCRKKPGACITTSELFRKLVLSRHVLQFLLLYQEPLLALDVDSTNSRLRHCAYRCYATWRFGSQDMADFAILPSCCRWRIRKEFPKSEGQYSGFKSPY

[2] = Volume of distribution at steady state in rat at 1 mg/kg, iv; assay type: ADME, organism-based; design: dose 1 mg/kg, route intravenous; settings: in vivo, read-out: Vdss
[3] = Oral bioavailability in rat at 3 mg/kg; assay type: ADME, organism-based; settings: in vivo, read-out: Activity
Rattus norvegicus [4] = assay: Reversal of complete Freund's adjuvant-induced hypersensitivity in rat chronic knee joint pain model at 5-50 mg/kg, po administered 13 days after complete Freund's adjuvant challenge bid for 4 days measured on day 15; assay type: functional, organism-based
Rattus norvegicus [5] = assay: Reversal of complete Freund's adjuvant-induced hypersensitivity in rat chronic knee joint pain model at 5-50 mg/kg, po administered 13 days after complete Freund's adjuvant challenge bid for 4 days measured on day 14; assay type: functional, organism-based
Rattus norvegicus [6] = assay: Antihyperalgesic activity against complete Freund's adjuvant-induced hypersensitivity in rat inflammatory pain model at 10 mg/kg, po after 1.5 hrs; assay type: functional, organism-based; design: dose 10 mg/kg
Brain = assay: Drug level in rat brain at 10 mg/kg, po; assay type: ADME, organism-based; design: dose 10 mg/kg, route oral; settings: in vivo, read-out: Drug uptake
P2X purinoceptor 7 [7] = target: T2, P2X purinoceptor 7 (Rattus norvegicus, UniProt Q64663); assay: Antagonist activity at rat P2X7 receptor ethidium bromide release assay; assay type: functional
T2 sequence (Q64663 whole entry): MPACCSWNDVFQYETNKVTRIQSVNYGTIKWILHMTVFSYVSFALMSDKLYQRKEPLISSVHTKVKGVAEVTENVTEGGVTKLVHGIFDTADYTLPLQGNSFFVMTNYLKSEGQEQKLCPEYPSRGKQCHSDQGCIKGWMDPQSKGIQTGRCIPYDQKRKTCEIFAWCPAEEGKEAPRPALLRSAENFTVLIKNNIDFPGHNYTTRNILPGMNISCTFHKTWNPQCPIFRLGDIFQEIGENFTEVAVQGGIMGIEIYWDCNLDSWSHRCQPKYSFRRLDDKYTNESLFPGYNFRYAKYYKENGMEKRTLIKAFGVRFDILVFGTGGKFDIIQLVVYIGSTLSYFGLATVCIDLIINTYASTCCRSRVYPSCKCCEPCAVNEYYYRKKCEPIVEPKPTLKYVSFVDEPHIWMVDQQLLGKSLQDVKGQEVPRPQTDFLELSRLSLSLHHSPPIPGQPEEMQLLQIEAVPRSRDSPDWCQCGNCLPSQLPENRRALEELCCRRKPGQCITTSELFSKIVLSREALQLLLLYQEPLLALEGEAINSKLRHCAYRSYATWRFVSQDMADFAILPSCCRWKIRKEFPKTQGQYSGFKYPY

[8] = Blood clearance in rat at 1 mg/kg, iv; assay type: ADME, organism-based; design: dose 1 mg/kg, route intravenous; settings: whole blood
Blood = assay: Drug level in rat blood at 10 mg/kg, po; assay type: ADME, organism-based; design: dose 10 mg/kg, route oral; settings: in vivo, read-out: Drug uptake
Rattus norvegicus [9] = assay: Antihyperalgesic activity against complete Freund's adjuvant-induced hypersensitivity in po dosed rat inflammatory pain model after 1.5 hrs; assay type: functional
[10] = Excretion half life in rat at 1 mg/kg, iv; assay type: ADME, organism-based; design: dose 1 mg/kg, route intravenous; settings: in vivo, read-out: beta t1/2 (converted)

SMILES	IC50 (P2X purinoceptor 7 [1])	other results
Cc1[nH]nc(C(C)(C)C)c1CCC(=O)NCc1ccc(F)cc1Cl	158 nM	
Cc1[nH]nc(CC(C)C)c1CCC(=O)NCc1ccc(F)cc1Cl	100 nM	
Cc1n[nH]c(C)c1CC(=O)NCc1ccc(F)cc1C(F)(F)F	39.8 nM	
CCc1n[nH]c(CC)c1CCC(=O)NCc1ccc(F)cc1Cl	10 nM	
Cc1noc(C)c1CC(=O)NCc1ccc(Cl)cc1Cl	15.8 nM	
Cc1[nH]nc(C(F)(F)F)c1CCC(=O)NCc1ccc(F)cc1Cl	12.6 nM	
Cc1noc(C)c1CCC(=O)NCc1ccc(F)cc1Cl	63.1 nM	
Cc1n[nH]c(C)c1CC(=O)NCc1ccc(Cl)c(C(F)(F)F)c1	63.1 nM	
Cc1n[nH]c(C)c1CC(=O)NCc1cccc(C(F)(F)F)c1Cl	2.51 nM	
Cc1cn[nH]c1CCC(=O)NCc1ccc(F)cc1Cl	398 nM	
Cc1cnn(C)c1CC(=O)NCc1ccc(Cl)cc1Cl	10 nM	
Cc1n[nH]c(C)c1CC(=O)NCc1ccccc1Cl	251 nM	
Cc1n[nH]c(C)c1CC(=O)NCc1cccc(Cl)c1	158 nM	
Cc1[nH]nc(-c2ccccc2)c1CCC(=O)NCc1ccc(F)cc1Cl	> 1000 nM	
Cc1n[nH]c(C)c1CC(=O)NCc1ccc(Cl)cc1Cl	7.94 nM	Vd [2]: 1 L/kg; bioavailability [3]: 100%; Activity (Rattus norvegicus [4]): Active; Activity (Rattus norvegicus [5]): Active; Activity (Rattus norvegicus [6]): Active; concentration (Brain): 4.9 µM; IC50 (P2X purinoceptor 7 [7]): 79.4 nM; clearance [8]: 9 mL/min/kg; concentration (Blood): 20.9 µM; ED50 (Rattus norvegicus [9]): 2.5 mg/kg; half-life [10]: 1.7 h

More lines, main results first:

IC50 (P2X purinoceptor 7 [1])	SMILES	other results
10 nM	Cn1ncc(F)c1CC(=O)NCc1cccc(C(F)(F)F)c1Cl	
3.16 nM	Cc1cnn(C)c1CC(=O)NCc1cccc(C(F)(F)F)c1Cl	
158 nM	Cc1n[nH]c(C)c1CC(=O)NCc1ccc(F)cc1F	
158 nM	Cc1cnn(C)c1CCC(=O)NCc1ccc(F)cc1Cl	
126 nM	CC(C)c1n[nH]c(C(C)C)c1CCC(=O)NCc1ccc(F)cc1Cl	
2.51 nM	Cc1noc(C)c1CC(=O)NCc1cccc(C(F)(F)F)c1Cl	
316 nM	Cc1cc(CCC(=O)NCc2ccc(F)cc2Cl)n(C)n1	
631 nM	Cc1n[nH]c(C)c1CC(=O)NCc1ccc(Cl)cc1	

From ChEMBL document CHEMBL1208703, “Structure-activity relationships and in vivo activity of (1H-pyrazol-4-yl)acetamide antagonists of the P2X(7) receptor” (Bioorg Med Chem Lett, 2010)
